ChEMBL document CHEMBL1201862, “PubChem BioAssay data set” (2004)
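These data come from cells grown in 96-well plates and exposed to compound for 48 hours at five concentrations. GI50 is the concentration that inhibits growth by half.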 Activity calls are given as the source filed them. Cut-off read from the data, not from the text of the source: active = GI50 up to about 1.1 µM and inactive = higher.

Tests used:
Assay in all cases: growth of human tumour cells (NCI), 48 h
[1] = test system: SR
[2] = test system: HCC 2998
[3] = test system: OVCAR-5
[4] = test system: OVCAR-8
[5] = test system: ACHN
[6] = test system: MOLT-4
[7] = test system: NCI-H460
[8] = test system: RPMI-8226
[9] = test system: RXF 393
[10] = test system: OVCAR-4
[11] = test system: HOP-92
[12] = test system: KM12
[13] = test system: HCT-15
[14] = test system: M14
[15] = test system: HL-60
[16] = test system: OVCAR-3
[17] = test system: NCI-H23
[18] = test system: LOX IMVI
[19] = test system: CAKI-1

Compound	GI50 [1]	GI50 [2]	GI50 [3]	GI50 [4]	GI50 [5]	GI50 [6]	GI50 [7]	GI50 [8]	GI50 [9]	GI50 [10]	GI50 [11]	GI50 [12]	GI50 [13] [µM]	GI50 [14]	GI50 [15]	GI50 [16]	GI50 [17]	GI50 [18]	GI50 [19]
CC(C)(CN1CCCCC1)C(=O)/C=C/c1ccc(Cl)c(Cl)c1	1.49 µM (inactive)	1.74 µM (inactive)	1.71 µM (inactive)	> 100 µM (inactive)	1.55 µM (inactive)	1.63 µM (inactive)	1.65 µM (inactive)	2.52 µM (inactive)	1.17 µM (inactive)	1.51 µM (inactive)	1.03 µM (active)	1.71 µM (inactive)	1.41	1.7 µM (inactive)	1.53 µM (inactive)	1.59 µM (inactive)	1.71 µM (inactive)	1.37 µM (inactive)	–
Cc1cccc(C(C)C)c1N1C(=O)C(=O)C(c2nc3ccccc3o2)C(=O)C1=O	70 µM (inactive)	95.7 µM (inactive)	> 100 µM (inactive)	> 100 µM (inactive)	> 100 µM (inactive)	24.7 µM (inactive)	76.7 µM (inactive)	–	21.4 µM (inactive)	> 100 µM (inactive)	> 100 µM (inactive)	> 100 µM (inactive)	35.5	> 100 µM (inactive)	30.3 µM (inactive)	32.1 µM (inactive)	80.2 µM (inactive)	41.7 µM (inactive)	> 100 µM (inactive)
Cc1nc2ccncc2[nH]1	> 100 µM (inactive)	> 100 µM (inactive)	> 100 µM (inactive)	> 100 µM (inactive)	> 100 µM (inactive)	> 100 µM (inactive)	> 100 µM (inactive)	–	> 100 µM (inactive)	> 100 µM (inactive)	–	–	> 100	> 100 µM (inactive)	> 100 µM (inactive)	> 100 µM (inactive)	> 100 µM (inactive)	> 100 µM (inactive)	> 100 µM (inactive)
COc1ccc(C2=NN(c3ccccc3)C[N+](c3ccc(OC)cc3)=N2)cc1	34 µM (inactive)	37.8 µM (inactive)	25 µM (inactive)	85.7 µM (inactive)	30.3 µM (inactive)	20.3 µM (inactive)	47.5 µM (inactive)	23.2 µM (inactive)	26 µM (inactive)	18.6 µM (inactive)	–	21.3 µM (inactive)	43.7	–	24 µM (inactive)	22 µM (inactive)	29.9 µM (inactive)	17.6 µM (inactive)	–
O=C(Cc1ccccc1)NN1C(=O)C(Cl)C1c1ccc([N+](=O)[O-])cc1 (stereo unspecified)	32.7 µM (inactive)	> 100 µM (inactive)	> 100 µM (inactive)	> 100 µM (inactive)	> 100 µM (inactive)	53.2 µM (inactive)	> 100 µM (inactive)	23.5 µM (inactive)	84.9 µM (inactive)	55.6 µM (inactive)	–	> 100 µM (inactive)	45.5	> 100 µM (inactive)	70.5 µM (inactive)	> 100 µM (inactive)	53.5 µM (inactive)	87.5 µM (inactive)	> 100 µM (inactive)
C/C=C(\NC(=O)C(CCCCN)NC(=O)C(C)NC(=O)C1CSC(C)C(NC(=O)C2CSCC(NC(=O)C(C)NC(=O)C(N)C(C)CC)C(=O)NC(CCCCN)C(=O)NC(Cc3ccccc3)C(=O)NC(CC(C)C)C(=O)N2)C(=O)N2CCCC2C(=O)NCC(=O)N1)C(=O)NCC(=O)NC1CSCC2NC(=O)C(Cc3ccc(O)cc3)NC(=O)C(CSC=CNC2=O)NC(=O)C(CC(N)=O)NC(=O)C(Cc2ccccc2)NC1=O (stereo unspecified)	> 100 µM (inactive)	> 100 µM (inactive)	> 100 µM (inactive)	> 100 µM (inactive)	65 µM (inactive)	> 100 µM (inactive)	75.3 µM (inactive)	–	> 100 µM (inactive)	> 100 µM (inactive)	–	66.2 µM (inactive)	> 100	> 100 µM (inactive)	> 100 µM (inactive)	> 100 µM (inactive)	> 100 µM (inactive)	> 100 µM (inactive)	–
Nc1nnc(N)n1N	> 100 µM (inactive)	> 100 µM (inactive)	> 100 µM (inactive)	–	> 100 µM (inactive)	> 100 µM (inactive)	> 100 µM (inactive)	> 100 µM (inactive)	> 100 µM (inactive)	> 100 µM (inactive)	> 100 µM (inactive)	> 100 µM (inactive)	> 100	> 100 µM (inactive)	> 100 µM (inactive)	–	> 100 µM (inactive)	> 100 µM (inactive)	> 100 µM (inactive)
CSCCCNC(=O)c1csc([C@@H](CSC)NC(=O)CCNC(=O)[C@@H](NC(=O)OCC(Br)(Br)Br)C(C)O)n1 (stereo partly specified)	> 100 µM (inactive)	> 100 µM (inactive)	> 100 µM (inactive)	> 100 µM (inactive)	> 100 µM (inactive)	> 100 µM (inactive)	> 100 µM (inactive)	–	> 100 µM (inactive)	> 100 µM (inactive)	> 100 µM (inactive)	> 100 µM (inactive)	> 100	> 100 µM (inactive)	> 100 µM (inactive)	> 100 µM (inactive)	> 100 µM (inactive)	> 100 µM (inactive)	> 100 µM (inactive)
Cc1c(C(=O)CC(=O)C(=O)Nc2ccccc2C(F)(F)F)[n+]([O-])c2ccccc2[n+]1[O-]	2.09 µM (inactive)	13.4 µM (inactive)	26.8 µM (inactive)	18.2 µM (inactive)	62.2 µM (inactive)	–	21.3 µM (inactive)	4.69 µM (inactive)	19.2 µM (inactive)	18.1 µM (inactive)	16.2 µM (inactive)	19.5 µM (inactive)	16.8	15.2 µM (inactive)	28.2 µM (inactive)	2.63 µM (inactive)	17.4 µM (inactive)	18.7 µM (inactive)	26.7 µM (inactive)
COC(=O)CCC(NC(=S)N/N=C/c1ccccn1)C(=O)OC (stereo unspecified)	59.2 µM (inactive)	> 100 µM (inactive)	63.1 µM (inactive)	> 100 µM (inactive)	> 100 µM (inactive)	> 100 µM (inactive)	> 100 µM (inactive)	> 100 µM (inactive)	> 100 µM (inactive)	> 100 µM (inactive)	84.5 µM (inactive)	> 100 µM (inactive)	> 100	> 100 µM (inactive)	84.3 µM (inactive)	> 100 µM (inactive)	> 100 µM (inactive)	> 100 µM (inactive)	–
CN1CC[C@]2(c3cccc(O)c3)CC(=O)/C(=C/c3ccc(Cl)c(Cl)c3)[C@@H]1C2	0.281 µM (active)	1.41 µM (inactive)	1.77 µM (inactive)	1.49 µM (inactive)	1.15 µM (inactive)	0.273 µM (active)	1.28 µM (inactive)	0.262 µM (active)	0.427 µM (active)	1.47 µM (inactive)	1.22 µM (inactive)	0.575 µM (active)	1.16	1.15 µM (inactive)	0.199 µM (active)	–	1.53 µM (inactive)	0.175 µM (active)	1.08 µM (active)
